Measured values reported in article doi:10.1101/2023.11.15.567208 (bioRxiv, 2024).

Columns and labels:
[1] = molecular target: T1, CGRP receptor (Calcrl and Ramp1) (Mus musculus, UniProt Q9R1W5+Q9WTJ5); assay: CGRP-sniffer HEK293 cells, calcium (GCaMP6s) dose-response; assay type: cell-based; conditions: selectivity control; HEK293 expressing Calcrl, Ramp1, GCaMP6s and Gα15
T1 construct: expressed in transfected cells; host or cells: HEK293; Calcrl/Gα15/GCaMP6s by PiggyBac transposase (puromycin), Ramp1 by pSBbi-Neo-cmv-TETo2-RAMP1 IRES-mTagBFP2-NLS (geneticin); doxycycline-induced
T1 sequence (Q9R1W5 23-463): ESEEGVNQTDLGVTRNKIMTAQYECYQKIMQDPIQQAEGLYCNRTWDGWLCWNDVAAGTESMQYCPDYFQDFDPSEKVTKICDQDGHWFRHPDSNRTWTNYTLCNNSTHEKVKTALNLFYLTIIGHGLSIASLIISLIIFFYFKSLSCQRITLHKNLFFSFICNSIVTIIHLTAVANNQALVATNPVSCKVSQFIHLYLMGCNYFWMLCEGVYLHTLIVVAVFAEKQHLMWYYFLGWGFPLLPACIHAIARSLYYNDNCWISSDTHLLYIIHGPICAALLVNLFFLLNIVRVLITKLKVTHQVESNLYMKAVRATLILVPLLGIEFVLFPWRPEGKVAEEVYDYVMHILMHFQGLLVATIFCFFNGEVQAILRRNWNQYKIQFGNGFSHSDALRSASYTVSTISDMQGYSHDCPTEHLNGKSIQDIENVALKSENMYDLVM
T1 sequence (Q9WTJ5 27-148): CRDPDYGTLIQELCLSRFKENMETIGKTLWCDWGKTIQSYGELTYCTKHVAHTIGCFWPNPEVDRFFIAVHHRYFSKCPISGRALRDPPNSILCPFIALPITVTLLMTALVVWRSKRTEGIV
From the text: The copyright holder for this preprint
(1 picture or pasted object on this page, not shown here)

[2] = molecular target: T2, Substance P receptor (NKR1) (Mus musculus, UniProt P30548); assay: Co-culture of DRG neurons with Substance P-sniffer cells, capsaicin-evoked Substance P release; assay type: cell-based; conditions: exogenous Substance P (10 nM); co-culture with WT or DKO DRG
T2 construct: T2A self-cleaving peptide remnant (from the polycistronic P2A-TACR1-T2A cassette) (C); expressed in transfected cells; host or cells: Flp-In T-REx HEK293 (Thermo Fisher Scientific, R78007), lentiviral transduction, hygromycin selection
T2 sequence (P30548 whole entry): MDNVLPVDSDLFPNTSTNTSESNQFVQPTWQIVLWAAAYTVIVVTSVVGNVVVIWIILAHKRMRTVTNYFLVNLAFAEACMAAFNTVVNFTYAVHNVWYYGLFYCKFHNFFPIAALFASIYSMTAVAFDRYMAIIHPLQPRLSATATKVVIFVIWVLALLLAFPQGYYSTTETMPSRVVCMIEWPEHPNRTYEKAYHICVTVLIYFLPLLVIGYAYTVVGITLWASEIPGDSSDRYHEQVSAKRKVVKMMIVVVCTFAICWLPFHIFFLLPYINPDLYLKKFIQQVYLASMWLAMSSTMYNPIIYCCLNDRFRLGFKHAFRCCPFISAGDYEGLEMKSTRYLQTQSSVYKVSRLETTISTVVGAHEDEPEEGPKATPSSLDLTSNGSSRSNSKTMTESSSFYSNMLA

[3] = ref Hylden and Wilcox, 1981, Malick and Goldstein, 1978, cited from earlier work
From the text: Alternatively, neuropeptides may have opposing effects in different parts of the circuitry meaning global loss of the gene may produce a net effect of no change in a particular behavior.

[4] = ref von Euler and Gaddum, 1931 (Substance P); Amara et al., 1982 (CGRPα); cited from earlier work
From the text: Among the most challenging diseases to treat is chronic pain. With over 20% of the population suffering from chronic pain, we urgently need to find new analgesic targets ([Nahin et al., 2023]).

In the case of “Substance P: 11-amino acid peptide first discovered as a tissue extract with contractile activity”, the “Sensitivity of CGRP-sniffer cells” value [1] is given as “insensitive”, the “Substance P-sniffer activation by exogenous peptide” value [2] is given as “activates Substance P-sniffers in both conditions” and the “Effect in the brain” value ([3]; in the brain) is given as “analgesic”. The “Effect of infusion into the spinal cord” value ([3]; infusion into the spinal cord) was “elicits pain” and the “Contractile or vasodilator activity” value [4] was “contractile activity”.
